In patent US8940909B2, “Indicator platform” (Biosynth AG, priority 2009, dated 2015):

Assays:
Assay in all cases: IO staining of colonies of beta-D-galactosidase positive/negative bacteria (Table IVb)
Assay type in all cases: cell-based
Salmonella illa 73 = details: Salmonella illa strain 73, b-gal +; 24 h on Nutrient Agar, 150 mg/l indicator, 100 mg/l IPTG
[1] = system: Streptococcus agalactiae 195; details: Streptococcus agalactiae strain 195, b-gal −; 24 h on Nutrient Agar, 150 mg/l indicator, 100 mg/l IPTG; as to C: Color of colonies: key: −: absent; +/−: weak; +: strong; ++: very strong; as to F: Fluorescence of colonies: key: −: absent; +/−: weak; +: strong; ++: very strong
Salmonella bongori 81 = details: Salmonella bongori strain 81, b-gal +; 24 h on Nutrient Agar, 150 mg/l indicator, 100 mg/l IPTG
Escherichia coli 270 = details: Escherichia coli strain 270, b-gal +; 24 h on Nutrient Agar, 150 mg/l indicator, 100 mg/l IPTG
Staphylococcus aureus 2 = details: Staphylococcus aureus strain 2, b-gal −, 24 h on Nutrient Agar, 150 mg/l indicator, 100 mg/l IPTG; for C: Color of colonies: footnote 2: S. aureus natural color
Enterobacter cloacae 245 = details: Enterobacter cloacae strain 245, b-gal +; 24 h on Nutrient Agar, 150 mg/l indicator, 100 mg/l IPTG
Aeromonas hydrophila 292 = details: Aeromonas hydrophila strain 292, b-gal +; 24 h on Nutrient Agar, 150 mg/l indicator, 100 mg/l IPTG
Shigella boydii 135 = details: Shigella boydii strain 135, b-gal −; 24 h on Nutrient Agar, 150 mg/l indicator, 100 mg/l IPTG
Serratia marcescens 40 = details: Serratia marcescens strain 40, b-gal +; 24 h on Nutrient Agar, 150 mg/l indicator, 100 mg/l IPTG
[2] = system: Pseudomonas aeruginosa 168; details: Pseudomonas aeruginosa strain 168, b-gal −, 24 h on Nutrient Agar, 150 mg/l indicator, 100 mg/l IPTG; for F: Fluorescence of colonies: footnote 1: blue autofluorescence; as to C: Color of colonies: key: −: absent; +/−: weak; +: strong; ++: very strong; as to G: Growth of colonies: key: −: absent; +/−: weak; +: strong; ++: very strong
[3] = system: Shigella dysenteriae Serovar 1 131; details: Shigella dysenteriae Serovar 1 strain 131, b-gal +/−; 24 h on Nutrient Agar, 150 mg/l indicator, 100 mg/l IPTG
Escherichia coli 61 = details: Escherichia coli strain 61, b-gal +; 24 h on Nutrient Agar, 150 mg/l indicator, 100 mg/l IPTG
[4] = system: Yersinia enterocolitica 175; details: Yersinia enterocolitica strain 175, b-gal +/−; 24 h on Nutrient Agar, 150 mg/l indicator, 100 mg/l IPTG; as to G: Growth of colonies: key: −: absent; +/−: weak; +: strong; ++: very strong
[5] = system: Staphylococcus saprophyticus 273; details: Staphylococcus saprophyticus strain 273, b-gal +; 24 h on Nutrient Agar, 150 mg/l indicator, 100 mg/l IPTG; as to G: Growth of colonies: key: −: absent; +/−: weak; +: strong; ++: very strong
[6] = system: Staphylococcus intermedius 31; details: Staphylococcus intermedius strain 31, b-gal +; 24 h on Nutrient Agar, 150 mg/l indicator, 100 mg/l IPTG
[7] = system: Enterobacter aerogenes 242; details: Enterobacter aerogenes strain 242, b-gal +; 24 h on Nutrient Agar, 150 mg/l indicator, 100 mg/l IPTG; as to C: Color of colonies: key: −: absent; +/−: weak; +: strong; ++: very strong; as to G: Growth of colonies: key: −: absent; +/−: weak; +: strong; ++: very strong
[8] = system: Salmonella enteritidis 43; details: Salmonella enteritidis strain 43, b-gal −; 24 h on Nutrient Agar, 150 mg/l indicator, 100 mg/l IPTG; also: key: −: absent; +/−: weak; +: strong; ++: very strong
Bacillus subtilis 65 = details: Bacillus subtilis strain 65, b-gal −; 24 h on Nutrient Agar, 150 mg/l indicator, 100 mg/l IPTG
Citrobacter freundii 181 = details: Citrobacter freundii strain 181, b-gal +; 24 h on Nutrient Agar, 150 mg/l indicator, 100 mg/l IPTG
[9] = system: Listeria monocytogenes (4b) 290; details: Listeria monocytogenes (4b) strain 290, b-gal −; 24 h on Nutrient Agar, 150 mg/l indicator, 100 mg/l IPTG; as to C: Color of colonies: key: −: absent; +/−: weak; +: strong; ++: very strong; as to F: Fluorescence of colonies: key: −: absent; +/−: weak; +: strong; ++: very strong
[10] = system: Escherichia coli (O157:H7) 60; details: Escherichia coli (O157:H7) strain 60, b-gal +; 24 h on Nutrient Agar, 150 mg/l indicator, 100 mg/l IPTG

SMILES: O=C(c1ccccc1)c1ccccc1-n1cc(O[C@@H]2O[C@H](CO)[C@H](O)[C@H](O)[C@H]2O)c2ccc(Cl)cc21 [Indicator I21a, 1-(2-Benzoylphenyl)-6-chloro-1H-indol-3-yl-beta-D-galactopyranoside]
- C: Color of colonies (Salmonella illa 73): −
- F: Fluorescence of colonies (Salmonella illa 73): −
- G: Growth of colonies (Salmonella illa 73): +
- C: Color of colonies [1]: −
- F: Fluorescence of colonies [1]: −
- G: Growth of colonies [1]: +/−
- C: Color of colonies (Salmonella bongori 81): +/−
- F: Fluorescence of colonies (Salmonella bongori 81): +/−
- G: Growth of colonies (Salmonella bongori 81): +
- C: Color of colonies (Escherichia coli 270): ++
- F: Fluorescence of colonies (Escherichia coli 270): +
- G: Growth of colonies (Escherichia coli 270): +
- F: Fluorescence of colonies (Staphylococcus aureus 2): −
- G: Growth of colonies (Staphylococcus aureus 2): +/−
- C: Color of colonies (Staphylococcus aureus 2): −
- C: Color of colonies (Enterobacter cloacae 245): +
- F: Fluorescence of colonies (Enterobacter cloacae 245): +
- G: Growth of colonies (Enterobacter cloacae 245): +
- C: Color of colonies (Aeromonas hydrophila 292): +
- F: Fluorescence of colonies (Aeromonas hydrophila 292): +
- G: Growth of colonies (Aeromonas hydrophila 292): +
- C: Color of colonies (Shigella boydii 135): −
- F: Fluorescence of colonies (Shigella boydii 135): −
- G: Growth of colonies (Shigella boydii 135): +
- C: Color of colonies (Serratia marcescens 40): ++
- F: Fluorescence of colonies (Serratia marcescens 40): +
- G: Growth of colonies (Serratia marcescens 40): +
- C: Color of colonies [2]: −
- G: Growth of colonies [2]: +
- F: Fluorescence of colonies [2]: +^1
- C: Color of colonies [3]: −
- F: Fluorescence of colonies [3]: −
- G: Growth of colonies [3]: +
- C: Color of colonies (Escherichia coli 61): +
- F: Fluorescence of colonies (Escherichia coli 61): +
- G: Growth of colonies (Escherichia coli 61): +
- C: Color of colonies [4]: −
- F: Fluorescence of colonies [4]: +/−
- G: Growth of colonies [4]: +
- C: Color of colonies [5]: +
- F: Fluorescence of colonies [5]: +
- G: Growth of colonies [5]: +
- C: Color of colonies [6]: +/−
- F: Fluorescence of colonies [6]: +/−
- G: Growth of colonies [6]: +/−
- C: Color of colonies [7]: +
- F: Fluorescence of colonies [7]: +
- G: Growth of colonies [7]: +
- C: Color of colonies [8]: −
- F: Fluorescence of colonies [8]: −
- G: Growth of colonies [8]: +
- C: Color of colonies (Bacillus subtilis 65): −
- F: Fluorescence of colonies (Bacillus subtilis 65): −
- G: Growth of colonies (Bacillus subtilis 65): +/−
- C: Color of colonies (Citrobacter freundii 181): +
- F: Fluorescence of colonies (Citrobacter freundii 181): +
- G: Growth of colonies (Citrobacter freundii 181): +
- C: Color of colonies [9]: −
- F: Fluorescence of colonies [9]: −
- G: Growth of colonies [9]: +/−
- C: Color of colonies [10]: +
- F: Fluorescence of colonies [10]: +
- G: Growth of colonies [10]: +

SMILES: COc1ccc(C(=O)c2ccccc2-n2cc(O[C@@H]3O[C@H](CO)[C@H](O)[C@H](O)[C@H]3O)c3c(Cl)c(Br)ccc32)c(OC)c1 [Indicator I28a, 5-Bromo-4-chloro-1-[2-(2,4-dimethoxybenzoyl)phenyl]-1H-indol-3-yl-beta-D-galactopyranoside]
- C: Color of colonies (Salmonella illa 73): −
- F: Fluorescence of colonies (Salmonella illa 73): −
- G: Growth of colonies (Salmonella illa 73): +
- C: Color of colonies [1]: −
- F: Fluorescence of colonies [1]: −
- G: Growth of colonies [1]: +/−
- C: Color of colonies (Salmonella bongori 81): +/−
- F: Fluorescence of colonies (Salmonella bongori 81): −
- G: Growth of colonies (Salmonella bongori 81): +
- C: Color of colonies (Escherichia coli 270): ++
- F: Fluorescence of colonies (Escherichia coli 270): +/−
- G: Growth of colonies (Escherichia coli 270): +
- F: Fluorescence of colonies (Staphylococcus aureus 2): −
- G: Growth of colonies (Staphylococcus aureus 2): +/−
- C: Color of colonies (Staphylococcus aureus 2): −
- C: Color of colonies (Enterobacter cloacae 245): +
- F: Fluorescence of colonies (Enterobacter cloacae 245): +/−
- G: Growth of colonies (Enterobacter cloacae 245): +
- C: Color of colonies (Aeromonas hydrophila 292): +/−
- F: Fluorescence of colonies (Aeromonas hydrophila 292): −
- G: Growth of colonies (Aeromonas hydrophila 292): +
- C: Color of colonies (Shigella boydii 135): −
- F: Fluorescence of colonies (Shigella boydii 135): −
- G: Growth of colonies (Shigella boydii 135): +
- C: Color of colonies (Serratia marcescens 40): +/−
- F: Fluorescence of colonies (Serratia marcescens 40): −
- G: Growth of colonies (Serratia marcescens 40): +
- C: Color of colonies [2]: −
- G: Growth of colonies [2]: +
- F: Fluorescence of colonies [2]: +^1
- C: Color of colonies [3]: −
- F: Fluorescence of colonies [3]: −
- G: Growth of colonies [3]: +
- C: Color of colonies (Escherichia coli 61): +
- F: Fluorescence of colonies (Escherichia coli 61): +/−
- G: Growth of colonies (Escherichia coli 61): +
- C: Color of colonies [4]: −
- F: Fluorescence of colonies [4]: −
- G: Growth of colonies [4]: +
- C: Color of colonies [5]: +/−
- F: Fluorescence of colonies [5]: −
- G: Growth of colonies [5]: +
- C: Color of colonies [6]: +
- F: Fluorescence of colonies [6]: +/−
- G: Growth of colonies [6]: +
- C: Color of colonies [7]: +
- F: Fluorescence of colonies [7]: +/−
- G: Growth of colonies [7]: +
- C: Color of colonies [8]: −
- F: Fluorescence of colonies [8]: −
- G: Growth of colonies [8]: +
- C: Color of colonies (Bacillus subtilis 65): −
- F: Fluorescence of colonies (Bacillus subtilis 65): −
- G: Growth of colonies (Bacillus subtilis 65): +/−
- C: Color of colonies (Citrobacter freundii 181): +
- F: Fluorescence of colonies (Citrobacter freundii 181): +/−
- G: Growth of colonies (Citrobacter freundii 181): +
- C: Color of colonies [9]: −
- F: Fluorescence of colonies [9]: −
- G: Growth of colonies [9]: +/−
- C: Color of colonies [10]: +
- F: Fluorescence of colonies [10]: +/−
- G: Growth of colonies [10]: +
